Some results are limits rather than exact numbers.

One assay has as its target T1, Human TRPC6 (Homo sapiens, UniProt Q9Y210).
T1 construct: expressed in transfected cells
T1 sequence (Q9Y210 1-931): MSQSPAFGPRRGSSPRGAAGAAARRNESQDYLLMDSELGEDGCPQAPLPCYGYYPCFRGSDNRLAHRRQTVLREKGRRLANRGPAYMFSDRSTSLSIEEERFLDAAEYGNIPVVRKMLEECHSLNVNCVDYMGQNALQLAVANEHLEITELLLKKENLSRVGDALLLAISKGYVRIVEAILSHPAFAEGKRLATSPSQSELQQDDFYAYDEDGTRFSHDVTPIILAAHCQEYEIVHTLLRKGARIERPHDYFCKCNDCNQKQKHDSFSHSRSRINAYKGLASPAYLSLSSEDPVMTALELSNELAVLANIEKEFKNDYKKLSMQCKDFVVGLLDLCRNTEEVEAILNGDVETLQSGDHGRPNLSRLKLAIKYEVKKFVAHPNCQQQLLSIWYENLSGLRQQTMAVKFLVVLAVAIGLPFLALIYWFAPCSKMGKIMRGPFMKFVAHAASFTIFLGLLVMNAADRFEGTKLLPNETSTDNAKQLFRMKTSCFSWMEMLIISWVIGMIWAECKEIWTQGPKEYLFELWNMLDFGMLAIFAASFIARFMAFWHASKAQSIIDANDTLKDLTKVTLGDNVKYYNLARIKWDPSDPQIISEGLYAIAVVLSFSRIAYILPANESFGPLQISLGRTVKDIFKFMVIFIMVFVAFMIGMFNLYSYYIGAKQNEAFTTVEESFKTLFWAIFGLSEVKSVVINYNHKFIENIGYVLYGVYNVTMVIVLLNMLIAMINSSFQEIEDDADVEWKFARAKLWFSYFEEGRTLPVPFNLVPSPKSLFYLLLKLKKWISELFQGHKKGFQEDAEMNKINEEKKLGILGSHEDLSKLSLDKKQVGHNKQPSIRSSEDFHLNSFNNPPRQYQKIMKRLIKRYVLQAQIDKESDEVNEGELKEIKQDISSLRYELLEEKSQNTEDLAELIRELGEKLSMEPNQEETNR
The assay can be described thus: Evaluation of TRPC6 channel inhibitory activity (1), FLIPR Calcium 5 Assay Kit, OAG stimulation (Compound Nos. 1-1293). In kind it is cell-based.
Settings: not given
The essentials: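 Cells stably expressing human TRPC6, plated 24 h before, were loaded 30 min with Calcium 5 dye plus probenecid in HEPES-HBSS. Compound was added 20 min before OAG (30 μM final) and fluorescence tracked on FLIPR. Inhibition normalised to no-compound and no-compound/no-OAG wells; pIC50 from four-parameter fit, reported as +/++/+++ categories.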
`Cc1nc(Oc2cc(C#N)ccc2-c2ncc(CN)cn2)cc(N2C3CCC2CC3)n1` [compound 672, 4-[5-(aminomethyl)pyrimidin-2-yl]-3-[6-(7-azabicyclo[2.2.1]heptan-7-yl)-2-methylpyrimidin-4-yl]oxybenzonitrile]: the IC50 was less than 10 nM.

The assay is the same for the next values; noted with them: Human TRPC6 stably-expressing cells, OAG 30 μM, FLIPR Calcium 5 Assay Kit; read-out: Inhibitory activity (pIC50 class) (converted).
In the case of `CCN(CC)c1cc(Cc2cc(C#N)ccc2-c2ncc(CN)cn2)n(C)n1` [compound 1206, 4-[5-(aminomethyl)pyrimidin-2-yl]-3-[[5-(diethylamino)-2-methylpyrazol-3-yl]methyl]benzonitrile], the IC50 was less than 10 nM.
The same measure, in the same setting: for `Cn1nc(-c2nccs2)cc1Oc1cc(C#N)ccc1-c1ccc([C@H](O)CN)cn1` [compound 536, 4-[5-[(1S)-2-amino-1-hydroxyethyl]pyridin-2-yl]-3-[2-methyl-5-(1,3-thiazol-2-yl)pyrazol-3-yl]oxybenzonitrile] the value was less than 10 nM.
As for `Cn1nc(C2CCOCC2)cc1Oc1cc(F)ccc1-c1ccc(CN)cn1` [compound 1008, [6-[4-fluoro-2-[2-methyl-5-(oxan-4-yl)pyrazol-3-yl]oxyphenyl]pyridin-3-yl]methanamine], the IC50 is 10 to 1000 nM.
For `Cc1nc(Oc2cc(C#N)ccc2-n2cc(C(O)CN)cn2)cc(-c2cccc(F)c2)n1` (stereo not drawn) [Compound 141, 4-[4-(2-amino-1-hydroxyethyl)pyrazol-1-yl]-3-[6-(3-fluorophenyl)-2-methylpyrimidin-4-yl]oxybenzonitrile], the IC50 is 10 to 1000 nM.
On to `CCN(CC)c1cc(Oc2cc(C#N)ccc2-c2ccc(CCN)cn2)n(C)n1` [compound 754, 4-[5-(2-aminoethyl)pyridin-2-yl]-3-[5-(diethylamino)-2-methylpyrazol-3-yl]oxybenzonitrile], for which the IC50 is less than 10 nM.
Consider `Cc1nn(CC(F)(F)F)c(C)c1Oc1cc(C#N)ccc1-c1ncc(CCN)cn1` [compound 943, 4-[5-(2-aminoethyl)pyrimidin-2-yl]-3-[3,5-dimethyl-1-(2,2,2-trifluoroethyl)pyrazol-4-yl]oxybenzonitrile], for which the IC50 was greater than 1000 nM.
As to `CC(C)n1cc(Oc2cc(Cl)ccc2-c2ncc(CCN)cn2)cn1` [compound 1020, 2-[2-[4-chloro-2-(1-propan-2-ylpyrazol-4-yl)oxyphenyl]pyrimidin-5-yl]ethanamine], the IC50 was 10 to 1000 nM.
On to `Cn1nc(-c2nccs2)cc1Oc1cc(C#N)ccc1-c1ncc([C@H](O)CN)cn1` [compound 574, 4-[5-[(1S)-2-amino-1-hydroxyethyl]pyrimidin-2-yl]-3-[2-methyl-5-(1,3-thiazol-2-yl)pyrazol-3-yl]oxybenzonitrile], for which the IC50 was 10 to 1000 nM.
With `Cc1cc(Oc2cc(C#N)ccc2-c2ccc(N3CC[C@@H](N)C3=O)cn2)cc(N2CCOCC2)n1` [compound 569, 4-[5-[(3R)-3-amino-2-oxopyrrolidin-1-yl]pyridin-2-yl]-3-(2-methyl-6-morpholin-4-ylpyridin-4-yl)oxybenzonitrile], the IC50 was greater than 1000 nM.
On the same count and under the same terms, as for `Cc1nc(C(=O)c2cc(F)ccc2-c2ncc(CN)cn2)cc(N2CCOCC2)n1` [compound 1104, [2-[5-(aminomethyl)pyrimidin-2-yl]-5-fluorophenyl]-(2-methyl-6-morpholin-4-ylpyrimidin-4-yl)methanone], the figure is greater than 1000 nM; as for `Cc1nc(Sc2cc(C#N)ccc2-c2ccc(CCN)cn2)cc(N2CCCCC2)n1` [compound 1249, 4-[5-(2-aminoethyl)pyridin-2-yl]-3-(2-methyl-6-piperidin-1-ylpyrimidin-4-yl)sulfanylbenzonitrile], less than 10 nM; as for `Cc1cc(Oc2cc(C#N)ccc2-c2ccc(CC3(N)COC3)cn2)cc(N2CCOCC2)n1` [compound 562, 4-[5-[(3-aminooxetan-3-yl)methyl]pyridin-2-yl]-3-(2-methyl-6-morpholin-4-ylpyridin-4-yl)oxybenzonitrile], less than 10 nM.
On the same count and under the same terms, as for `Cn1nc(C2CC2)cc1Oc1cc(C#N)ccc1-c1cc(NCCCO)ccn1` [compound 586, 3-(5-cyclopropyl-2-methylpyrazol-3-yl)oxy-4-[4-(3-hydroxypropylamino)pyridin-2-yl]benzonitrile], the figure is greater than 1000 nM; as for `Cc1c(Oc2cc(F)ccc2-c2ncc(CCN)cn2)cnn1-c1ccccn1` [compound 971, 2-[2-[4-fluoro-2-(5-methyl-1-pyridin-2-ylpyrazol-4-yl)oxyphenyl]pyrimidin-5-yl]ethanamine], greater than 1000 nM; as for `N#Cc1ccc(-c2ccc(CCN)cc2)c(Oc2cnnc(-c3ccccc3C(=O)O)c2)c1` [Compound 121, 2-[5-[2-[4-(2-aminoethyl)phenyl]-5-cyanophenoxy]pyridazin-3-yl]benzoic acid], greater than 1000 nM.
Same read-out and setting: as for `CN(C)c1cc(Oc2cc(C#N)ccc2-c2ccc(CC3(N)COC3)cn2)n(C)n1` [compound 743, 4-[5-[(3-aminooxetan-3-yl)methyl]pyridin-2-yl]-3-[5-(dimethylamino)-2-methylpyrazol-3-yl]oxybenzonitrile], the figure is less than 10 nM; as for `Cc1nc(Oc2cc(C#N)ccc2-c2ccc(CCN)cc2)cc(-c2cccn2C)n1` [Compound 28, 4-[4-(2-aminoethyl)phenyl]-3-[2-methyl-6-(1-methylpyrrol-2-yl)pyrimidin-4-yl]oxybenzonitrile], 10 to 1000 nM; as for `N#Cc1ccc(-c2ccc(C(O)CN)cn2)c(Oc2cc(C3CC3)nn2CC(F)(F)F)c1` (stereo not drawn) [compound 370, 4-[5-(2-amino-1-hydroxyethyl)pyridin-2-yl]-3-[5-cyclopropyl-2-(2,2,2-trifluoroethyl)pyrazol-3-yl]oxybenzonitrile], less than 10 nM.
Turning to `Cc1cc(Oc2cc(C#N)ccc2-c2ccc([C@H](O)CN)cn2)cc(-c2ncccn2)n1` [compound 692, 4-[5-[(1S)-2-amino-1-hydroxyethyl]pyridin-2-yl]-3-(2-methyl-6-pyrimidin-2-ylpyridin-4-yl)oxybenzonitrile], the IC50 was greater than 1000 nM.
On the same count and under the same terms, as for `N#Cc1ccc(-c2ccc(CCN)nc2)c(Oc2cc(N3CCCCC3)cnn2)c1` [Compound 81, 4-[6-(2-aminoethyl)pyridin-3-yl]-3-(5-piperidin-1-ylpyridazin-3-yl)oxybenzonitrile], the figure is greater than 1000 nM.
On to `Cc1nc(Oc2cc(C#N)ccc2-c2ncc(CCN)cn2)cc(N2CCCC2)n1` [compound 448, 4-[5-(2-aminoethyl)pyrimidin-2-yl]-3-(2-methyl-6-pyrrolidin-1-ylpyrimidin-4-yl)oxybenzonitrile], for which the IC50 was less than 10 nM.
The same measure, in the same setting: as for `N#Cc1ccc(-c2ncc(CCN)cn2)c(Cn2cncc2-c2ccccc2)c1` [compound 1134, 4-[5-(2-aminoethyl)pyrimidin-2-yl]-3-[(5-phenylimidazol-1-yl)methyl]benzonitrile], the figure is greater than 1000 nM; as for `Cc1nc(Oc2cc(C#N)ccc2-c2ncc(CN)cn2)cc(N(C)C(C)C)n1` [compound 792, 4-[5-(aminomethyl)pyrimidin-2-yl]-3-[2-methyl-6-[methyl(propan-2-yl)amino]pyrimidin-4-yl]oxybenzonitrile], 10 to 1000 nM; as for `Cc1nc(Oc2cc(C#N)ccc2-c2ccc3c(c2)CC(N)C3=O)cc(N2CCOCC2)n1` (stereo not drawn) [Compound 131, 4-(2-Amino-1-oxo-2,3-dihydroinden-5-yl)-3-(2-methyl-6-morpholin-4-ylpyrimidin-4-yl)oxybenzonitrile], greater than 1000 nM.
On to `COCc1nn(C)c(Oc2cc(C#N)ccc2-c2ccc(CCN)cc2)c1C` [Compound 242, 4-[4-(2-aminoethyl)phenyl]-3-[5-(methoxymethyl)-2,4-dimethylpyrazol-3-yl]oxybenzonitrile], for which the IC50 was greater than 1000 nM.
Still for that read-out and setting: for `CCCc1cc(Oc2cc(C#N)ccc2-c2ncc(CN)cn2)n(C)n1` [compound 363, 4-[5-(aminomethyl)pyrimidin-2-yl]-3-(2-methyl-5-propylpyrazol-3-yl)oxybenzonitrile] the value was less than 10 nM; for `N#Cc1ccc(-n2cc(C(O)CN)cn2)c(Cn2cnc(-c3ccccc3)c2)c1` (stereo not drawn) [compound 1127, 4-[4-(2-amino-1-hydroxyethyl)pyrazol-1-yl]-3-[(4-phenylimidazol-1 yl)methyl]benzonitrile], greater than 1000 nM.
The same measure, in the same setting: as for `Cn1nc(C2CC2)cc1Oc1cc(C#N)ccc1-c1cccn(CCN)c1=O` [compound 573, 4-[1-(2-aminoethyl)-2-oxopyridin-3-yl]-3-(5-cyclopropyl-2-methylpyrazol-3-yl)oxybenzonitrile], the figure is 10 to 1000 nM.
The same measure, in the same setting: as for `Cc1nnc(N2CCCCC2)cc1Oc1cc(C#N)ccc1-c1ncc(CN)cn1` [compound 821, 4-[5-(aminomethyl)pyrimidin-2-yl]-3-(3-methyl-6-piperidin-1-ylpyridazin-4-yl)oxybenzonitrile], the figure is 10 to 1000 nM.
